Experimental data: EP1432717B1, “SUBSTITUTED DISILOXANES, METHOD FOR THE PRODUCTION THEREOF AND THE USE THEREOF FOR REVERSAL OF MULTIDRUG RESISTANCE (MDR)” (Molnar, Jozsef, priority 2000, dated 2002)
Counter-ions that a name gives are not always drawn.

Legend:
[1] = Water solubility (stated in heading)
gp-170 Protein = experiment: Rhodamine-123 efflux pump inhibition assay (cell sorter fluorescence FL1); format: cell-based, Maus; details: for 100%-ige Hemmungsbereich (concentration range giving 100% inhibition of the efflux pump): considerable variation between repeats
Procedure: 0,5 ml 2x10^6 /ml L-5178Y parental und Mdr Mauslymphomazellen wurden 10 Min. lang mit 40,0 200,0 und 1000 ng ALIS-409 inkubiert. Danach wurden die Zellen mit Rhodamin-123 Indikatorfarbstoff (Endkonzentration: 5,2 µMol) bei 37C° für 20 Min. inkubiert. Die Zellen wurden mit PBS gewaschen und die Fluoreszenz-Intensität (FL1) mittels Cellsorter gemessen. Die Intensität der unbehandelten parentalen Zellen entsprach der 100%igen Hemmung.
(§1) Die Intensität der unbehandelten Mdr-Zellen entsprach der 100%-igen Effluxpumpemktivität. Bei mehrfach wiederholten unabhängigen Versuchen in Deutschland und in Ungam wurde eine Inhibition der Effluxpumpen bereits bei 40,0 ng/ml Konzentration zwischen 20-45% gefunden und bei etwa 200,0 ng/ml Konzentration eine 80%-ige Hemmung erreicht. Der 100%-ige Hemmungsbereich liegt etwa zwischen 300-800 ng/ml. Es gab zwar eine erhebliche Schwankung bei der Wiederholung, jedoch fiel immer die 100%-ige Hemmung in den Nanogramm Bereich. Bei der Überprüfung von Mdr-Gen-Expression mittels PCR wurde kein Einfluss dieser ALIS-Verbindung auf die Reduktion oder Verstärkung der Mdr RNA Synthese gefunden. Das ist deshalb günstig, weil die Mdr auch eine wichtige physiologische Rolle bei den Entgiflungsmechanismen der gesunden Zellen (z.B. Nierenzellen) spielt und nach der Beendigung der Therapie das aktive gp-170 Protein wieder produziert werden kann. Außerdem wirkt ALIS-409 auch allein cancerostatisch - und zwar gegenüber gp-170 positiv (EPG85-257RDB) Magencarcinomazellen in vitro. Es wurde die folgende Proliferationshemmung nachgewiesen: 41% bei 100 ng/ml und 74% bei 300 ng/ml.
Die methodische Überprüfung war mit dem Beispiel 3 identisch. Auch die Inhibition der Effluxpumpenaktivitäten waren ähnlich groß. Im Konzentrationsbereich 200-500 ng/ml konnte eine 100%-ige Inhibition erreicht werden. […] Die schnelle Hemmung nach einer 10-minütigen Inkubatioszeit weist auf eine direkte Interaktion zwischen der Substanz und dem gp-170 Protein hin.

Mdr RNA Synthese = experiment: PCR check of Mdr gene expression; format: cell-based
Procedure: as §1
Die methodische Überprüfung war mit dem Beispiel 3 identisch. Auch die Inhibition der Effluxpumpenaktivitäten waren ähnlich groß. Im Konzentrationsbereich 200-500 ng/ml konnte eine 100%-ige Inhibition erreicht werden. […]

[2] = system: gp-170 positiv (EPG85-257RDB) Magencarcinomazellen; experiment: In vitro proliferation inhibition (compound alone); format: cell-based
Procedure: as §1

[3] = In vivo toxicity test in mice; design: species or system Mäuse; details: for survival: mouse, in vivo, 10 mg/kg, 10,0 mg/kg, read-out: Überleben der Mäuse
Description: Der Erfindung liegt die Aufgabe zugrunde, Verbindungen zur Verfügung zu stellen, mit denen sich die Wirksamkeit von Zytostatika verbessern lässt. Die Aufgabe wurde erfindungsgemäß durch die Bereitstellung von neuen organischen Siliciumverbindungen der Formel I gelöst. Die erfindungsgemäßen neuen substituierten Disiloxane der allgemeinen Formel I [drawing 2] enthalten folgenden Substituenten: • R^1 = Methyl, Ethyl, Phenyl oder tertiär Butyl • R^2 = X (Halogen: Cl, Br, F), CX3, (para, ortho, meta), • n = 0-1, m = 1-3 • Q = Alkyl, Cycloalkyl, sekundäres Amin, Morpholin, substituiertes Piperazin, worin [drawing 3] • R^3 = Methyl, Ethyl, Butyl, Phenyl, Benzyl, -(CH2)pSi(R^4)3 mit p = 1 - 3 und R^4 = Methyl, Ethyl bedeuten. Die erfindungsgemäß bereitgestellten Verbindungen werden durch Umsetzung von substituierten Alkyl-dichlor-silanen mit Aryl-Grignard-Verbindungen gewonnen und daraus durch acide Hydrolyse Disiloxane, die ihrerseits im Fall von Halogen-Alkylen mit Aminen umgesetzt werden. In speziellen Fällen wird Magnesium mit 4-Fluor-brombenzol umgesetzt und daraus durch Reaktion mit 3-Chlorpropyl-methyl-dichlorsilan das Zwischenprodukt 1,3-bis(4-fluorophenyl)-1,3-dimethyl-1,3-bis(3-chloropropyl)-disiloxan gewonnen. Dieses Produkt wird seinerseits mit Morpholin zu ALIS 409 oder mit 4-Butyl-piperazin zu ALIS 421 (Beispiele 2 und 3) umgesetzt. Überraschendweise hat sich herausgestellt, dass es sich bei den erfindungsgemäßen neuen substituierten Disiloxane um biologisch wirksame, nicht toxische Verbindungen handelt, die zur Umkehrung der Multidrogeresistenz (Mdr) der malignen Tumorzellen und pathogenen Erreger fähig sind und die Effluxpumpenaktivität der malignen Mdr-Tumorzellen und die Pgp-Resistenz von parasitären Zellen, Pilzen sowie von Bakterien bereits im ng/ml-Konzentrationsbereich stark inhibieren. Die neuen substituierten Disiloxane finden Verwendung als Zytostatika und in der Chemotherapie - auch in Kombination mit anderen Mitteln. Es ist überraschend, dass sie eine starke Chemosensitation der resistenten Mdr-Tumorzellen verursachen und ihre Effluxpumpenaktivität unterdrücken. Dadurch lässt sich die intrazelluläre Chemotherapeutikum-Konzentration so hoch ansetzen, dass kein Unterschied mehr im Vergleich mit parentalen Zellen nachgewiesen werden kann. Die als ALIS-Verbindungen bezeichneten erfindungsgemäßen Substanzen sind dadurch gekennzeichnet, dass sie biologisch wirksam sind und die Effluxpumpenaktivität der malignen Mdr-Tumorzellen, Pgp-Resistenz von parasitären Zellen, Pilzen und Bakterien bereits im ng/ml-Konzentrationsbereich stark inhibieren. Auch in höheren Konzentration wirken sie in vivo nicht toxisch. Nach dem Zell-Substanz-Kontakt sind sie sofort wirksam. Die ALIS-Verbindungen sind dadurch gekennzeichnet, dass sie hauptsächlich die Wirksamkeit der Chemotherapie erhöhen, aber auch allein zytostatisch wirken. Die Toxizität der neuen Verbindungen wurde im Maussytem getestet. Das Ergebnis war überraschend gut. Trotz zehnfacher Überdosierung konnte der ID-50 Wert nicht ermittelt werden, da die Mäuse die Behandlung 100%-ig überlebt haben und kein Gewichtsverlust auftrat. In manchen Fällen bekamen die Mäuse scheinbar sogar mehr Appetit. Alle Ergebnisse weisen darauf hin, dass die erfindungsgemäß bereitgestellten Verbindungen zum Einsatz in der Chemotherapie von Tumoren bzw. von Infektionskrankheiten geeignet sind. […]

[4] = L-5178Y Mdr Mauslymphomazellen, 10 min incubation

Row | Compound | Wasserlöslichkeit [1] | Inhibition der Effluxpumpen (gp-170 Protein; 40,0 ng/ml, L-5178Y Mdr Mauslymphomazellen, 10 min incubation, repeated independent experiments) | 100%-ige Hemmungsbereich (concentration range giving 100% inhibition of the efflux pump) (gp-170 Protein; [4]) [ng/mL] | Hemmung (Effluxpumpen) (gp-170 Protein; about 200,0 ng/ml, L-5178Y Mdr Mauslymphomazellen, 10 min incubation) [%] | Einfluss auf die Mdr-Gen-Expression (Mdr RNA Synthese) (Mdr RNA Synthese) | inhibition at 0.1 µg/mL ([2]; 100 ng/ml, EPG85-257RDB, read-out: Proliferationshemmung) [%] | inhibition at 0.3 µg/mL ([2]; 300 ng/ml, EPG85-257RDB, read-out: Proliferationshemmung) [%] | Gewichtsverlust ([3]; 10,0 mg/kg) | survival [3] [%] | Inhibition der Effluxpumpenaktivität (in words) (gp-170 Protein; Mdr tumour cells, qualitative statement) | cancerostatischer Effekt allein ([2]; comparison in words) | Toxizität ([3]; 10,0 mg/kg)
1 | C[Si](CCCN1CCOCC1)(O[Si](C)(CCCN1CCOCC1)c1ccc(F)cc1)c1ccc(F)cc1 (centres unmarked) [ALIS-409, 1,3-Dimethyl-1,3-bis(4-fluorophenyl)-1,3-bis(3-morpholino-propyl)-disiloxan-dihydrochlorid] | sehr gut wasserlöslich | 20-45% | 300 to 800 | 80 | kein Einfluss | 41 | 74 | ohne Gewichtsverlust | 100 |  |  | 
2 | CCCCN1CCN(CCC[Si](C)(O[Si](C)(CCCN2CCN(CCCC)CC2)c2ccc(F)cc2)c2ccc(F)cc2)CC1 (centres unmarked) [ALIS-421, 1,3-Dimethyl-1,3-bis(4-fluorophenyl)-1,3-bis{3-[1(4-butyl-piperazinyl)]-propyl}-disiloxan-tetrahydrochlorid] | sehr gut wasserlöslich |  | 200 to 500 |  | keinen Einfluss |  |  | ohne Gewichtsverlust | 100 | ähnlich groß | schwächer als bei ALIS 409 | nicht toxisch
